Test results from PubChem BioAssay (NCI).
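48-hour exposure; five concentrations; linearly interpolated endpoints. At the GI50, growth is halved. The concentration for full growth arrest is given as TGI.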

Key:
Assay in all cases: inhibition of tumour cell growth, NCI panel, 48 h
[1] = system: HCT-116 colon
[2] = system: MALME-3M melanoma
[3] = system: SNB-75 CNS
[4] = system: RXF 393 renal
[5] = system: SK-MEL-2 melanoma
[6] = system: TK-10 renal
[7] = system: SK-MEL-5 melanoma
[8] = system: OVCAR-5 ovarian
[9] = system: LOX IMVI melanoma
[10] = system: HS 578T breast

With `COc1cc(N=Nc2ccccc2)cc(/C=N\[N-]C(N)=S)c1[O-].COc1cc(N=Nc2ccccc2)cc(/C=N\[N-]C(N)=S)c1[O-].[Fe+4]` the GI50 [1] was 19.5 µM, the TGI [1] was > 100 µM and the GI50 [2] was 59.6 µM. For the same compound, the TGI [2] was > 100 µM, the GI50 [3] was 35.2 µM and the TGI [3] was > 100 µM. For the same compound, the GI50 [4] was 10.9 µM, the TGI [4] was > 100 µM and the GI50 [5] was 7.72 µM. For the same compound, the TGI [5] was 50.4 µM, the GI50 [6] was 48.1 µM and the TGI [6] was > 100 µM. It also gave a GI50 [7] of 13.5 µM and a TGI [7] of 49 µM.

For `NC1CCCCC1N.O=C([O-])P(=O)([O-])[O-].[Na+].[Pt+4]` (stereo not given), the GI50 [8] was > 100 µM, the TGI [8] was > 100 µM and the GI50 [1] was 47.6 µM. For the same compound, the TGI [1] was > 100 µM, the GI50 [2] was 84.3 µM and the TGI [2] was > 100 µM. The GI50 [9] was > 100 µM, the TGI [9] was > 100 µM and the GI50 [3] was > 100 µM. The TGI [3] was > 100 µM, the GI50 [4] was > 100 µM and the TGI [4] was > 100 µM. The GI50 [6] was > 100 µM and the TGI [6] was > 100 µM.

With `CCN(CC)c1ccc(N=C2C=C(C(=O)Nc3ccc(S(C)(=O)=O)cc3)C(=O)c3ccccc32)c(C)c1` the GI50 [10] was 1.87 µM, the TGI [10] was > 100 µM and the GI50 [8] was > 100 µM. The TGI [8] was > 100 µM, the GI50 [1] was 12.6 µM and the TGI [1] was > 100 µM. For the same compound, the GI50 [2] was 30.9 µM, the TGI [2] was > 100 µM and the GI50 [9] was 7.98 µM. For the same compound, the TGI [9] was > 100 µM, the GI50 [3] was 3.08 µM and the TGI [3] was > 100 µM. For the same compound, the GI50 [4] was > 100 µM, the TGI [4] was > 100 µM and the GI50 [6] was > 100 µM. For the same compound, the TGI [6] was > 100 µM, the GI50 [7] was 5.84 µM and the TGI [7] was > 100 µM.

`c1cc(C2CCCCC2)ccc1OCCCCCCN1CCNCC1` was tested, and the GI50 [10] was 1.96 µM, the TGI [10] was 4.48 µM and the GI50 [8] was 1.75 µM. It also gave a TGI [8] of 3.5 µM, a GI50 [2] of 1.99 µM and a TGI [2] of 3.86 µM. It also gave a GI50 [3] of 1.83 µM, a TGI [3] of 4.5 µM and a GI50 [5] of 1.82 µM. It also gave a TGI [5] of 3.71 µM, a GI50 [6] of 1.78 µM and a TGI [6] of 3.24 µM. The GI50 [7] was 1.78 µM and the TGI [7] was 3.26 µM.

With `Cc1cc2c(cc1C)[n+](=O)c(C(=O)/C=C/c1ccc(Cl)cc1)c(C)n2[O-]` the TGI [8] was > 100 µM, the TGI [2] was > 100 µM and the TGI [9] was 50.4 µM. For the same compound, the TGI [3] was 45.5 µM, the TGI [5] was 79.1 µM and the TGI [6] was 58.5 µM. The TGI [7] was 58.7 µM.

In the case of `CN(C)c1ccc(/C=C/C(=O)C(C)(C)C)cc1Br`, the TGI [8] is reported as > 100 µM, the TGI [1] is reported as 38.1 µM and the TGI [2] is reported as > 100 µM. It also gave a TGI [3] of 70.3 µM, a TGI [5] of 36.7 µM and a TGI [6] of 87.3 µM. For the same compound, the TGI [7] was 35.5 µM.

Work on `NC(N)=N/N=C/c1c(-c2cccs2)nc2sccn12` yielded a GI50 [8] of 17.5 µM, a TGI [8] of 31.3 µM and a GI50 [1] of 4.23 µM. It also gave a TGI [1] of 17.7 µM, a GI50 [9] of 14 µM and a TGI [9] of 27 µM. For the same compound, the GI50 [3] was 5.66 µM, the TGI [3] was 17.1 µM and the GI50 [7] was 13.6 µM. The TGI [7] was 26.5 µM.

With `C[C@]12CC/C(=N\N)C[C@@H]1CC[C@@H]1[C@@H]2CC[C@]2(C)/C(=N/N)CC[C@@H]12` the GI50 [8] was > 100 µM, the TGI [8] was > 100 µM and the GI50 [1] was > 100 µM. The TGI [1] was > 100 µM, the GI50 [2] was > 100 µM and the TGI [2] was > 100 µM. For the same compound, the GI50 [9] was > 100 µM, the TGI [9] was > 100 µM and the GI50 [3] was > 100 µM. For the same compound, the TGI [3] was > 100 µM, the GI50 [4] was > 100 µM and the TGI [4] was > 100 µM. For the same compound, the GI50 [5] was > 100 µM, the TGI [5] was > 100 µM and the GI50 [6] was > 100 µM. For the same compound, the TGI [6] was > 100 µM, the GI50 [7] was > 100 µM and the TGI [7] was > 100 µM.

With `N=S(=O)(c1ccccc1)c1ccccc1[N+](=O)[O-]` (stereo not given) the TGI [8] was > 100 µM, the TGI [1] was > 100 µM and the TGI [2] was > 100 µM. For the same compound, the TGI [3] was > 100 µM, the TGI [4] was > 100 µM and the TGI [5] was > 100 µM. The TGI [6] was > 100 µM and the TGI [7] was > 100 µM.

`Cc1ccc(C(=O)O/N=C2/CCCCC2CN(C)C)cc1` (stereo not given) was tested, and the TGI [8] was > 100 µM, the TGI [1] was > 100 µM and the TGI [2] was > 100 µM. For the same compound, the TGI [9] was > 100 µM, the TGI [3] was > 100 µM and the TGI [4] was > 100 µM. The TGI [5] was > 100 µM, the TGI [6] was > 100 µM and the TGI [7] was > 100 µM.

`O=C1c2ccccc2-c2nccc3cc(Cl)nc1c23` was tested, and the GI50 [10] was 1.99 µM, the TGI [10] was 14.2 µM and the GI50 [8] was > 72.5 µM. For the same compound, the TGI [8] was > 100 µM, the GI50 [1] was 1.18 µM and the TGI [1] was 2.41 µM. For the same compound, the GI50 [2] was 0.908 µM, the TGI [2] was 2.42 µM and the GI50 [9] was 1.13 µM. The TGI [9] was 2.33 µM, the GI50 [3] was 1.93 µM and the TGI [3] was 9.56 µM. It also gave a GI50 [5] of 2.83 µM, a TGI [5] of 7.28 µM and a GI50 [6] of 4.33 µM. The TGI [6] was > 100 µM, the GI50 [7] was 1.34 µM and the TGI [7] was 2.61 µM.

With `Cc1cc(=O)c2cc(N=Cc3ccc([N+](=O)[O-])o3)ccc2o1` the TGI [10] was > 100 µM, the TGI [8] was > 100 µM and the TGI [1] was > 100 µM. For the same compound, the TGI [2] was > 100 µM, the TGI [9] was > 100 µM and the TGI [3] was > 100 µM. The TGI [5] was > 100 µM, the TGI [6] was > 100 µM and the TGI [7] was > 100 µM.

In the case of `COc1cccc2c1C1(O)C2CCCC12OCCCO2` (stereo not given), the TGI [8] is reported as > 100 µM, the TGI [1] is reported as > 100 µM and the TGI [2] is reported as > 100 µM. The TGI [9] was > 100 µM, the TGI [3] was > 100 µM and the TGI [4] was > 100 µM. The TGI [5] was > 100 µM, the TGI [6] was > 100 µM and the TGI [7] was > 100 µM.

For `ON(CCc1ccncc1)Cc1ccccc1`, the TGI [10] was > 100 µM, the TGI [8] was > 100 µM and the TGI [1] was > 100 µM. The TGI [2] was > 100 µM, the TGI [9] was > 100 µM and the TGI [3] was > 100 µM. The TGI [4] was > 100 µM and the TGI [7] was > 100 µM.

For `CCNc1c(C(=O)N(CC)CC)c(=O)[nH]c2ncccc12`, the TGI [8] was > 100 µM, the TGI [1] was > 100 µM and the TGI [2] was > 100 µM. For the same compound, the TGI [9] was > 100 µM, the TGI [3] was > 100 µM and the TGI [4] was > 100 µM. The TGI [5] was > 100 µM, the TGI [6] was > 100 µM and the TGI [7] was > 100 µM.

With `N#Cc1c2ccccc2c2n1-c1ccccc1OC(c1ccccc1)C2=O` (stereo not given) the GI50 [10] was 3.53 µM, the TGI [10] was 37 µM and the GI50 [8] was 5.37 µM. The TGI [8] was 34 µM, the GI50 [1] was 2.84 µM and the TGI [1] was 12.4 µM. It also gave a GI50 [2] of 11.7 µM, a TGI [2] of 30.6 µM and a GI50 [9] of 2.45 µM. The TGI [9] was 6.82 µM, the GI50 [3] was 2.23 µM and the TGI [3] was 11.9 µM. The GI50 [4] was 3.15 µM, the TGI [4] was 9.55 µM and the GI50 [6] was 4.9 µM. For the same compound, the TGI [6] was 20.7 µM, the GI50 [7] was 1.86 µM and the TGI [7] was 3.87 µM.

`O=S(=O)([O-])[O-].[Cl-].[NH2-].[NH2-].[NH2-].[NH2-].[Ru+3].c1ccc(-c2cccnc2)cc1` was tested, and the GI50 [8] was > 100 µM, the TGI [8] was > 100 µM and the GI50 [1] was > 100 µM. For the same compound, the TGI [1] was > 100 µM, the GI50 [2] was > 100 µM and the TGI [2] was > 100 µM. For the same compound, the GI50 [9] was > 100 µM, the TGI [9] was > 100 µM and the GI50 [3] was 88.9 µM. For the same compound, the TGI [3] was > 100 µM, the GI50 [5] was > 100 µM and the TGI [5] was > 100 µM. For the same compound, the GI50 [6] was > 100 µM, the TGI [6] was > 100 µM and the GI50 [7] was > 100 µM. For the same compound, the TGI [7] was > 100 µM.

In the case of `CCNC(=O)/C=C/CCC#Cc1ccc(-c2ccc(-c3cccs3)s2)s1`, the TGI [8] is reported as > 100 µM, the TGI [1] is reported as > 100 µM and the TGI [2] is reported as > 100 µM. The TGI [9] was > 100 µM, the TGI [3] was > 100 µM and the TGI [4] was > 100 µM. The TGI [5] was > 100 µM, the TGI [6] was > 100 µM and the TGI [7] was > 100 µM.
